Tests used:
[1] = Sensory evaluation of aqueous solution I containing (E)-2-nonenal 1 ppb: off-flavor intensity and masking component intensity; settings: (E)-2-nonenal 1 ppb, average score 0-4
Summary of the method: (§1)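 Nootkatone added to degradation-component solutions in ion-exchanged water and scored by eight experienced panelists. Off-flavor rated 0–4 relative to unmasked solution (4) and plain water (0). Masking-component intensity rated on an absolute 0–4 scale.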

[2] = Sensory evaluation of aqueous solution II containing (E)-2-octenal 10 ppb: off-flavor intensity and masking component intensity; settings: (E)-2-octenal 10 ppb, average score 0-4
Summary of the method: as §1

[3] = Sensory evaluation of aqueous solution III containing 1-octen-3-one 1 ppb: off-flavor intensity and masking component intensity; settings: 1-octen-3-one 1 ppb, average score 0-4
Summary of the method: as §1

[4] = Sensory evaluation of aqueous solution IV containing 1,5-octadien-3-one 100 ppt: off-flavor intensity and masking component intensity; settings: aqueous solution IV, 1,5-octadien-3-one 100 ppt, average score 0-4
Summary of the method: as §1

[5] = Sensory evaluation of aqueous solution V containing 1-octen-3-ol 10 ppb: off-flavor intensity and masking component intensity; settings: 1-octen-3-ol 10 ppb, average score 0-4
Summary of the method: as §1

[6] = Sensory evaluation of aqueous solution VI containing 1,5-octadien-3-ol 10 ppb: off-flavor intensity and masking component intensity; settings: aqueous solution VI, 1,5-octadien-3-ol 10 ppb, average score 0-4
Summary of the method: as §1

[7] = Overall conclusion of the sensory evaluation across aqueous solutions I to VI
Summary of the method: as §1

C/C=C/C(=O)C1=C(C)C=CCC1(C)C [β-Damascenone, β-damascenone]
Off-Flavor Intensity ([1]; 0.001 ppt added): 3.5 points | Off-Flavor Intensity ([1]; 0.01 ppt added): 3.5 points | Off-Flavor Intensity ([1]; 0.1 ppt added): 2.9 points | Off-Flavor Intensity ([1]; 1 ppb added): 1.8 points | Off-Flavor Intensity ([1]; 1 ppt added): 2.5 points | Off-Flavor Intensity ([1]; 10 ppb added): 1.4 points | Off-Flavor Intensity ([1]; 10 ppt added): 2.4 points | Off-Flavor Intensity ([1]; 100 ppb added): 1.0 points | Off-Flavor Intensity ([1]; 100 ppt added): 2.3 points | Off-Flavor Intensity ([2]; 0.001 ppt added): 2.9 points | Off-Flavor Intensity ([2]; 0.01 ppt added): 2.8 points | Off-Flavor Intensity ([2]; 0.1 ppt added): 2.4 points | Off-Flavor Intensity ([2]; 1 ppb added): 1.1 points | Off-Flavor Intensity ([2]; 1 ppt added): 2.1 points | Off-Flavor Intensity ([2]; 10 ppb added): 0.9 points | Off-Flavor Intensity ([2]; 10 ppt added): 1.9 points | Off-Flavor Intensity ([2]; 100 ppb added): 0.8 points | Off-Flavor Intensity ([2]; 100 ppt added): 1.4 points | Off-Flavor Intensity ([3]; 0.001 ppt added): 3.6 points | Off-Flavor Intensity ([3]; 0.01 ppt added): 3.6 points | Off-Flavor Intensity ([3]; 0.1 ppt added): 3.3 points | Off-Flavor Intensity ([3]; 1 ppb added): 1.9 points | Off-Flavor Intensity ([3]; 1 ppt added): 2.9 points | Off-Flavor Intensity ([3]; 10 ppb added): 1.4 points | Off-Flavor Intensity ([3]; 10 ppt added): 2.5 points | Off-Flavor Intensity ([3]; 100 ppb added): 1.3 points | Off-Flavor Intensity ([3]; 100 ppt added): 2.3 points | Off-Flavor Intensity ([4]; 0.001 ppt added): 3.5 points | Off-Flavor Intensity ([4]; 0.01 ppt added): 3.4 points | Off-Flavor Intensity ([4]; 0.1 ppt added): 3.3 points | Off-Flavor Intensity ([4]; 1 ppb added): 2.3 points | Off-Flavor Intensity ([4]; 1 ppt added): 3.1 points | Off-Flavor Intensity ([4]; 10 ppb added): 1.6 points | Off-Flavor Intensity ([4]; 10 ppt added): 2.8 points | Off-Flavor Intensity ([4]; 100 ppb added): 1.6 points | Off-Flavor Intensity ([4]; 100 ppt added): 2.5 points | Off-Flavor Intensity ([5]; 0.001 ppt added): 3.4 points | Off-Flavor Intensity ([5]; 0.01 ppt added): 3.1 points | Off-Flavor Intensity ([5]; 0.1 ppt added): 2.6 points | Off-Flavor Intensity ([5]; 1 ppb added): 1.5 points | Off-Flavor Intensity ([5]; 1 ppt added): 2.4 points | Off-Flavor Intensity ([5]; 10 ppb added): 1.1 points | Off-Flavor Intensity ([5]; 10 ppt added): 2.4 points | Off-Flavor Intensity ([5]; 100 ppb added): 0.8 points | Off-Flavor Intensity ([5]; 100 ppt added): 2.0 points | Off-Flavor Intensity ([6]; 0.001 ppt added): 2.6 points | Off-Flavor Intensity ([6]; 0.01 ppt added): 2.1 points | Off-Flavor Intensity ([6]; 0.1 ppt added): 1.9 points | Off-Flavor Intensity ([6]; 1 ppb added): 0.6 points | Off-Flavor Intensity ([6]; 1 ppt added): 1.7 points | Off-Flavor Intensity ([6]; 10 ppb added): 0.2 points | Off-Flavor Intensity ([6]; 10 ppt added): 1.3 points | Off-Flavor Intensity ([6]; 100 ppb added): 0.0 points | Off-Flavor Intensity ([6]; 100 ppt added): 0.9 points | concentration that masks the off-flavor and does not affect the flavor of the food and/or beverage itself, lower limit [7]: ≥ 0.001 ppt | concentration that masks the off-flavor and does not affect the flavor of the food and/or beverage itself, upper limit [7]: ≤ 10 ppb

CC(=O)/C=C/C1=C(C)CCCC1(C)C [β-Ionone, β-ionone]
Off-Flavor Intensity ([1]; 0.01 ppt added): 3.4 points | Off-Flavor Intensity ([1]; 0.1 ppt added): 3.1 points | Off-Flavor Intensity ([1]; 1 ppb added): 1.8 points | Off-Flavor Intensity ([1]; 1 ppm added): 0.5 points | Off-Flavor Intensity ([1]; 1 ppt added): 2.6 points | Off-Flavor Intensity ([1]; 10 ppb added): 1.4 points | Off-Flavor Intensity ([1]; 10 ppt added): 2.6 points | Off-Flavor Intensity ([1]; 100 ppb added): 0.8 points | Off-Flavor Intensity ([1]; 100 ppt added): 2.3 points | Off-Flavor Intensity ([2]; 0.01 ppt added): 3.1 points | Off-Flavor Intensity ([2]; 0.1 ppt added): 3.0 points | Off-Flavor Intensity ([2]; 1 ppb added): 1.6 points | Off-Flavor Intensity ([2]; 1 ppm added): 0.1 points | Off-Flavor Intensity ([2]; 1 ppt added): 2.6 points | Off-Flavor Intensity ([2]; 10 ppb added): 1.4 points | Off-Flavor Intensity ([2]; 10 ppt added): 2.3 points | Off-Flavor Intensity ([2]; 100 ppb added): 0.8 points | Off-Flavor Intensity ([2]; 100 ppt added): 2.0 points | Off-Flavor Intensity ([3]; 0.01 ppt added): 3.5 points | Off-Flavor Intensity ([3]; 0.1 ppt added): 3.3 points | Off-Flavor Intensity ([3]; 1 ppb added): 2.0 points | Off-Flavor Intensity ([3]; 1 ppm added): 0.8 points | Off-Flavor Intensity ([3]; 1 ppt added): 3.0 points | Off-Flavor Intensity ([3]; 10 ppb added): 1.6 points | Off-Flavor Intensity ([3]; 10 ppt added): 2.8 points | Off-Flavor Intensity ([3]; 100 ppb added): 1.4 points | Off-Flavor Intensity ([3]; 100 ppt added): 2.5 points | Off-Flavor Intensity ([4]; 0.01 ppt added): 3.8 points | Off-Flavor Intensity ([4]; 0.1 ppt added): 3.5 points | Off-Flavor Intensity ([4]; 1 ppb added): 2.5 points | Off-Flavor Intensity ([4]; 1 ppm added): 1.0 points | Off-Flavor Intensity ([4]; 1 ppt added): 3.5 points | Off-Flavor Intensity ([4]; 10 ppb added): 2.3 points | Off-Flavor Intensity ([4]; 10 ppt added): 3.4 points | Off-Flavor Intensity ([4]; 100 ppb added): 1.6 points | Off-Flavor Intensity ([4]; 100 ppt added): 3.0 points | Off-Flavor Intensity ([5]; 0.01 ppt added): 3.3 points | Off-Flavor Intensity ([5]; 0.1 ppt added): 3.0 points | Off-Flavor Intensity ([5]; 1 ppb added): 1.8 points | Off-Flavor Intensity ([5]; 1 ppm added): 0.3 points | Off-Flavor Intensity ([5]; 1 ppt added): 2.5 points | Off-Flavor Intensity ([5]; 10 ppb added): 1.4 points | Off-Flavor Intensity ([5]; 10 ppt added): 2.5 points | Off-Flavor Intensity ([5]; 100 ppb added): 0.8 points | Off-Flavor Intensity ([5]; 100 ppt added): 2.3 points | Off-Flavor Intensity ([6]; 0.01 ppt added): 3.3 points | Off-Flavor Intensity ([6]; 0.1 ppt added): 2.9 points | Off-Flavor Intensity ([6]; 1 ppb added): 1.8 points | Off-Flavor Intensity ([6]; 1 ppm added): 0.4 points | Off-Flavor Intensity ([6]; 1 ppt added): 2.6 points | Off-Flavor Intensity ([6]; 10 ppb added): 1.5 points | Off-Flavor Intensity ([6]; 10 ppt added): 2.3 points | Off-Flavor Intensity ([6]; 100 ppb added): 0.8 points | Off-Flavor Intensity ([6]; 100 ppt added): 2.1 points | concentration that masks the off-flavor and does not affect the flavor of the food and/or beverage itself, lower limit [7]: ≥ 0.1 ppt | concentration that masks the off-flavor and does not affect the flavor of the food and/or beverage itself, upper limit [7]: ≤ 100 ppb

— US20250176599A1, “FLAVOR COMPOSITION AND FOOD AND BEVERAGE” (TAKASAGO INTERNATIONAL CORPORATION, priority 2021, published 2025)
